Experimental data from patent US20230096103A1, “BERBERINE COMPOUNDS, BERBERINE COMPOSITIONS, AND METHODS FOR ADMINISTRATION THEREOF” (Dignity Health, priority 2020, published 2023).

Tests used:
male C57BL/6 mice = experiment: Nicotine-induced conditioned place preference (CPP); assay type: in vivo, mouse
Method: A conventional biased CPP was performed on male C57BL/6 mice. Mice were put into two-compartment CPP apparatus (Med Associate Inc. VT) for accommodation once (20 min) a day for 3 days and for monitoring the preference to any specific side of compartment. Mice were divided into 3 groups (5 mice per group) and received 2 training sessions per day for 4 days.
When the mouse received a saline injection, it was placed into the opposite side for 20 min. […] Alternatively, the mice of the second group received saline injection and placed into the opposite side. The third group of mice (the I-THP only group) received /-THP i.p. injection (10 mg/Kg) and were placed into the least preferred side for 20 min. Alternatively, the mice received a saline injection and were placed into the opposite side.
On the 5th day, mice were tested for place preference by allowing free access to both conditioning compartments for 20 minutes. The foregoing 4-day training session was repeated on the 6th day. Mice of group 1 received their treatments without change. […] Alternatively, the mice of group 2 received a saline injection and then received a saline injection 5 min later. After the saline injection, the mice of group 2 were placed into the opposite chamber for 4 days. On the 10th day, the mice were tested for place preference for 20 min (See, FIG. 8).

human α4β2-nAChR [1] = molecular target: T1, human α4β2-nAChR (Homo sapiens, UniProt P17787+P43681); experiment: Whole-cell patch-clamp of human α4β2-nAChR-mediated currents in transfected SH-EP1 cells; assay type: cell-based; settings: for ACh-induced currents, peak current component / ACh-induced currents, steady-state component: 30 μM co-applied with 1 mM ACh; for 1 mM ACh-induced whole-cell currents: 1 min pretreatment
T1 construct: expressed in transfected cells; host or cells: human SH-EP1 cell line
Method: The effects of THPBs on α4β2-nAChR function were evaluated in vitro. Specifically, whole-cell patch-clamp recording technique was employed in α4β2-nAChRs transfected with a human SH-EP1 cell-line. FIG. 1A provides graphs illustrating the effects of a 1 min pre-treatment of 30 μM /-THP, d/-THB or /-SPD on 1 mM ACh-induced current in SH-EP1 cell line.
Thus, when THPBs are co-applied with an agonist, it affects receptor function after agonist opens channels.
(§1) The effects of THB-induced inhibition on the α4β2-nAChR function were evaluating using human α4β2-nAChRs (transfected to SH-EP1 cells) and rat α4β2-nAChRs natively expressed in VTA DA neurons. The 30 μM THB (without pretreatment) inhibited both types (human and rat) of α4β2-nAChR function, and compared to peak current, the steady-state current portion was more sensitive to THB (FIGS. 3A-3C).
The effect of different concentrations of THB on 1 mM ACh-induced whole-cell currents were further examined in human α4β2-nAChRs in SH-EP1 cells. […] The steady-state current was more sensitive to THB than the peak current.
FIG. 9A provides a graph of traces of co-application of THB6 on ACh-induced current. FIG. 9B provides a graph of traces of the effect of 1 min pretreatment of THB6 on ACh-induced current. […] Each bar of the bar graph presented in FIG. 9C represents the mean from 4 cells and vertical bars indicate +Se. A ^“*” was given to indicate p<0.05, while a ^“***” was given to indicate p<0.001 in FIG. 9C. Data was analyzed with One-Way ANOVA.
A dosage containing 100 μM THB6 compound was evaluated on human and mouse α4β2-nAChR-mediated currents. FIG. 10A provides a graph of traces of ACh-induced whole-cell currents in human α4β2-nAChRs transfected in human SH-EP1 cells. FIG. 10B provides a graph of traces of ACh-induced whole-cell currents in mouse α4β2-nAChRs transfected in VTA dopamine neurons. […] Each bar in the bar graph of FIG. 10C represents the mean from 4 cells and vertical bars indicate +SE. A ^“*” was given to indicate p<0.05. A ^“***” was given to indicate p<0.001 in FIG. 9C. Data was analyzed with One-Way ANOVA.

VTA DA neurons [2] = experiment: Miniature EPSCs in VTA DA neuron, patch-clamp whole-cell recording in VTA slice; assay type: cell-based
Method: Thus, the effect of /-THP on this nicotine-induced EPSC enhancement was studied. […] Co-application of 10 μM /-THP abolished nicotine-induced enhancement of mEPSCs (see, FIGS. 5A and 5C).

mice = experiment: Mouse locomotor activity after systemic injection; assay type: in vivo
Description: Systemic injection of dosages containing THB6 to mice and the mice's locomotive activity was studied.

mouse α4β2-nAChRs = molecular target: T2, mouse α4β2-nAChRs (Mus musculus, UniProt O70174+Q9ERK7); experiment: ACh-induced whole-cell currents of mouse α4β2-nAChRs in VTA dopamine neurons; assay type: cell-based; settings: 100 μM
T2 construct: expressed in transfected cells; host or cells: VTA dopamine neurons
Method: A dosage containing 100 μM THB6 compound was evaluated on human and mouse α4β2-nAChR-mediated currents. FIG. 10A provides a graph of traces of ACh-induced whole-cell currents in human α4β2-nAChRs transfected in human SH-EP1 cells. FIG. 10B provides a graph of traces of ACh-induced whole-cell currents in mouse α4β2-nAChRs transfected in VTA dopamine neurons. […] FIGS. 10C and 10D provide bar graphs showing the statistic result that THB6 inhibits both peak and steady-state compounds of ACh-induced currents. Each bar in the bar graph of FIG. 10C represents the mean from 4 cells and vertical bars indicate +SE. A ^“*” was given to indicate p<0.05. A ^“***” was given to indicate p<0.001 in FIG. 9C. Data was analyzed with One-Way ANOVA.

VTA DA neurons [3] = experiment: Action potential firing in mouse VTA slices, cell-attached patch recording; assay type: cell-based
Method: Based on the evaluation of a dosage containing THB6 compounds on VTA slices, it was determined that THB6 prevents nicotine-induced firing rate increase in VTA DA neurons. […] FIG. 11B is a bar graph showing the statistical result of the normalized firing rate of THB6 compounds.

VTA DA neurons [4] = experiment: Extracellular single unit recording of VTA DA neuron firing in anesthetized mice; assay type: in vivo, mouse
Method: The effect of systemic injection of THB6 on mouse VTA DA neuron firing was evaluated by applying 10 mg/kg via an IV to anesthetized mice and extracellular single unit recordings were performed. FIG. 12A provides an image of the VTA slice, showing the recording electrode track and recording site after the experiment. The location of the recording electrode track is depicted in FIG. 12B.

human α4β2-nAChR [5] = molecular target: T1, human α4β2-nAChR; experiment: 3H-epibatidine (H-EBDN) binding and binding competition on heterologously expressed α4β2-nAChR; settings: FIG. 2A
VTA DA neurons [6] = experiment: In vivo VTA DA neuronal firing in anesthetized rats; parameters: species or system rat
Method: It was tested whether systemic injection of THB affected VTA DA neuron firing. As shown in FIGS. 6A-6C, injection of THB (1 mg/kg, i.v.) increased VTA DA neuron firing rate, bursting fraction (FIG. 6A), and slow oscillations (FIGS. 6B-6D). […] THB appears to eliminate nicotinic effect via its blockade of nAChRs. Therefore, the actions of THB are consistent with the double target hypothesis that THB blocks nAChRs (especially α4β2-nAChRs) and enhances DA release from VTA to DA neuronal targets.

human α4β2-nAChR [7] = molecular target: T1, human α4β2-nAChR; experiment: 86Rb+ efflux assay, carbachol-induced response, heterologously expressed α4β2-nAChR; assay type: cell-based
rat α4β2-nAChRs = molecular target: T3, rat α4β2-nAChRs (Rattus norvegicus, UniProt P09483+P12390); experiment: Whole-cell currents of rat α4β2-nAChRs natively expressed in VTA DA neurons; assay type: cell-based; settings: 30 μM, without pretreatment
T3 construct: rat α4β2-nAChRs natively expressed in VTA DA neurons; endogenous in cells; host or cells: rat VTA dopamine neurons
Method: as §1

[8] = 1 mg/kg, i.v., anesthetized rats

Molecule: COc1cc2c(cc1OC)[C@@H]1Cc3ccc(OC)c(OC)c3CN1CC2 [/-THP, /-tetrahydropalmatine]
- nicotine rewarding effects after CPP has been established (male C57BL/6 mice; 10 mg/Kg i.p. 5 min before nicotine 1.5 mg/Kg): counteracts
- ACh-induced currents, peak current component (human α4β2-nAChR [1]; SH-EP1 cells): only mildly reduced
- ACh-induced currents, steady-state component (human α4β2-nAChR [1]; SH-EP1 cells): suppressed
- 1 mM ACh-induced whole-cell currents (human α4β2-nAChR [1]; 30 μM, SH-EP1 cells): dramatically eliminated
- IC50 (human α4β2-nAChR [1]; co-application with 1 mM ACh, SH-EP1 cells, n=8, read-out: IC50 value for current net charge): 5.2 µM
- Hill coefficient (human α4β2-nAChR [1]; co-application with 1 mM ACh, current net charge): 0.4
- nicotine-induced enhancement of mEPSCs (VTA DA neurons [2]; 10 μM co-applied with 1 μM nicotine): abolished

Molecule: COc1ccc2c(c1OC)CN1CCc3cc4oc(=O)oc4cc3C1C2 (centres unmarked) [THB6]
- nicotine-induced increase of locomotor activity (mice; pretreatment): prevented
- locomotor activity, compound alone (mice; systemic injection): did not alter
- peak and steady-state components of ACh-induced currents, mouse α4β2-nAChRs (mouse α4β2-nAChRs): inhibits
- peak component of ACh-induced currents (human α4β2-nAChR [1]; 30 μM, with and without 1 min pretreatment, FIG. 9C): inhibiting
- peak and steady-state components of ACh-induced currents, human α4β2-nAChRs (human α4β2-nAChR [1]; 100 μM, SH-EP1 cells): inhibits
- DA neuronal firing, compound alone (VTA DA neurons [3]): did not affect
- nicotine-induced firing increase (VTA DA neurons [3]): prevented
- neuronal firing rate, compound alone (VTA DA neurons [4]; 10 mg/kg IV, anesthetized mice): did not affect
- nicotine-induced increase of firing rate (VTA DA neurons [4]; 10 mg/kg IV, anesthetized mice): prevented

Molecule: COc1ccc2c(c1OC)CN1CCc3cc4c(cc3C1C2)OCO4 (centres unmarked) [THB, tetrahydroberberine]
- affinity in H-EBDN binding competition (human α4β2-nAChR [5]): high affinity
- VTA DA neuron bursting fraction (VTA DA neurons [6]; [8]): increased
- VTA DA neuron firing rate (VTA DA neurons [6]; [8]): increased
- VTA DA neuron slow oscillations (VTA DA neurons [6]; [8]): increased
- effect of nicotine on VTA DA firing rate and bursting fraction after THB (VTA DA neurons [6]; nicotine 0.5 mg/kg i.v. 5 min after THB injection): failed to increase
- IC50 (human α4β2-nAChR [7]): 7 µM
- ACh-induced currents, peak current component (human α4β2-nAChR [1]; SH-EP1 cells): only mildly reduced
- ACh-induced currents, steady-state component (human α4β2-nAChR [1]; SH-EP1 cells): suppressed
- 1 mM ACh-induced whole-cell currents (human α4β2-nAChR [1]; 30 μM, SH-EP1 cells): dramatically eliminated
- human α4β2-nAChR function (ACh-induced currents) (human α4β2-nAChR [1]; 30 μM, without pretreatment): inhibited
- IC50 (human α4β2-nAChR [1]; IC50 value of Ip (peak current), 1 mM ACh-induced whole-cell currents, SH-EP1 cells): 2.2 µM
- IC50 (human α4β2-nAChR [1]; IC50 value of Is (steady-state current), 1 mM ACh-induced whole-cell currents, SH-EP1 cells): 37 µM
- rat α4β2-nAChR function (ACh-induced currents) (rat α4β2-nAChRs): inhibited

Molecule: CN1CCCC1c1cccnc1 (centres unmarked) [nicotine]
- conditioned place preference (male C57BL/6 mice; 1.5 mg/Kg): induced significant CPP
- mEPSC amplitude (VTA DA neurons [2]; FIG. 5D): did not affect
- mEPSC frequency (VTA DA neurons [2]; bath application of 1 μM): significantly increased
- neuronal firing rate at 2 minutes after injection (VTA DA neurons [4]; systemic injection, back to normal level after 8 minutes): increases

Molecule: /-stepholidine [/-SPD]
- affinity in H-EBDN binding competition (human α4β2-nAChR [5]): lower affinity
- IC50 (human α4β2-nAChR [7]; FIG. 2B, read-out: IC50 value, carbachol-induced 86Rb+ efflux response): 30 µM
- ACh-induced currents, peak current component (human α4β2-nAChR [1]; SH-EP1 cells): only mildly reduced
- ACh-induced currents, steady-state component (human α4β2-nAChR [1]; SH-EP1 cells): suppressed
- 1 mM ACh-induced whole-cell currents (human α4β2-nAChR [1]; 30 μM, SH-EP1 cells): dramatically eliminated
